{
  "source": "paper PMC7075836",
  "about": "(European Journal of Nuclear Medicine and Molecular Imaging, 2020)",
  "key": {"α5β1": {"target": "T1, α5β1 (Homo sapiens, UniProt P05556+P08648)", "T1 construct": "incubating a small molecule RGD-mimetic-tritiated radioligand with soluble integrin protein", "T1 sequence (P08648 42-995 limits assumed)": "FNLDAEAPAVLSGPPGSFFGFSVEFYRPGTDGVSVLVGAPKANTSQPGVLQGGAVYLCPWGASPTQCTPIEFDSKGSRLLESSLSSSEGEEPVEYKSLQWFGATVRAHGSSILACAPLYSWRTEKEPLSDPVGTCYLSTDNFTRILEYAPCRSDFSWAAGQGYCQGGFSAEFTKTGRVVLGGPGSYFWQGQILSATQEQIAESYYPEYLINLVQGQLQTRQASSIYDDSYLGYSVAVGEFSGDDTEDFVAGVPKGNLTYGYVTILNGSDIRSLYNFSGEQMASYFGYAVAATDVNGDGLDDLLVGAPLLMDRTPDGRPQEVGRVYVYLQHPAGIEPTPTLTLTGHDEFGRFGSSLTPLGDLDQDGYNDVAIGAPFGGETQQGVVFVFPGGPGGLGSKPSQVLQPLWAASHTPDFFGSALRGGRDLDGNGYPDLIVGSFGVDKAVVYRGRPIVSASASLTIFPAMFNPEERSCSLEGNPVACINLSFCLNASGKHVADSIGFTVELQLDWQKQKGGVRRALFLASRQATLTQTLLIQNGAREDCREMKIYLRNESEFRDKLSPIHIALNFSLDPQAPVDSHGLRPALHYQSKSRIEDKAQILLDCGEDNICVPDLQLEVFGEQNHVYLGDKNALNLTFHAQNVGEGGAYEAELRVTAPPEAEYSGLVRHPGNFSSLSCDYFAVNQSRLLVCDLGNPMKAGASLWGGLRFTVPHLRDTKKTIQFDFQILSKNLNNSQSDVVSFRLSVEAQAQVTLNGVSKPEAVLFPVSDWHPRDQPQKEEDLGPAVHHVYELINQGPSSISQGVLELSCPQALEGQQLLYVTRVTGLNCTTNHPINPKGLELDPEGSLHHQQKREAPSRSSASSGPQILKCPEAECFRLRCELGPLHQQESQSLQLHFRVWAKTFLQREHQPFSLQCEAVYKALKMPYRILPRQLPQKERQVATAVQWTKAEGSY", "T1 sequence (P05556 21-728 limits assumed)": "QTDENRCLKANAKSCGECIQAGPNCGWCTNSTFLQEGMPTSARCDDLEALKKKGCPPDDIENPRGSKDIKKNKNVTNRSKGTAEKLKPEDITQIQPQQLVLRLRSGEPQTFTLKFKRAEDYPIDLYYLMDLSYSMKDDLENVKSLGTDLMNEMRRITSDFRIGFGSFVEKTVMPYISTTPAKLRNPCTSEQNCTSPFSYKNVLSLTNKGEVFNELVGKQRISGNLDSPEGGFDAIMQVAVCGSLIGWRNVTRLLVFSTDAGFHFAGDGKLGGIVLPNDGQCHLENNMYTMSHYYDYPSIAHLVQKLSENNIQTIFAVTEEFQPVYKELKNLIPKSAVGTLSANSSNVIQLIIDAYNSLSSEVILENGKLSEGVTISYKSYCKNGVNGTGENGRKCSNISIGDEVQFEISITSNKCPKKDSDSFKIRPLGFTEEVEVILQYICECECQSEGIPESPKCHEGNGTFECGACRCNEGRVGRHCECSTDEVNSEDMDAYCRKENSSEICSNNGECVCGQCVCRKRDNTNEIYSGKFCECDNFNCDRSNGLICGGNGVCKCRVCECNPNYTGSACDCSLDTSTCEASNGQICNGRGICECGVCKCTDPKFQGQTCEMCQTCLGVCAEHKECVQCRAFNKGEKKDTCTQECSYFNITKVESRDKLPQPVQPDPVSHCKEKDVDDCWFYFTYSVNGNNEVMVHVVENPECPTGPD", "experiment": "biochemical", "conditions": "read-out: inhibition of binding"}, "α8β1": {"target": "T2, α8β1 (Homo sapiens, UniProt P05556+P53708)", "T2 construct": "incubating a small molecule RGD-mimetic-tritiated radioligand with soluble integrin protein", "T2 sequence (P53708 39-1012 limits assumed)": "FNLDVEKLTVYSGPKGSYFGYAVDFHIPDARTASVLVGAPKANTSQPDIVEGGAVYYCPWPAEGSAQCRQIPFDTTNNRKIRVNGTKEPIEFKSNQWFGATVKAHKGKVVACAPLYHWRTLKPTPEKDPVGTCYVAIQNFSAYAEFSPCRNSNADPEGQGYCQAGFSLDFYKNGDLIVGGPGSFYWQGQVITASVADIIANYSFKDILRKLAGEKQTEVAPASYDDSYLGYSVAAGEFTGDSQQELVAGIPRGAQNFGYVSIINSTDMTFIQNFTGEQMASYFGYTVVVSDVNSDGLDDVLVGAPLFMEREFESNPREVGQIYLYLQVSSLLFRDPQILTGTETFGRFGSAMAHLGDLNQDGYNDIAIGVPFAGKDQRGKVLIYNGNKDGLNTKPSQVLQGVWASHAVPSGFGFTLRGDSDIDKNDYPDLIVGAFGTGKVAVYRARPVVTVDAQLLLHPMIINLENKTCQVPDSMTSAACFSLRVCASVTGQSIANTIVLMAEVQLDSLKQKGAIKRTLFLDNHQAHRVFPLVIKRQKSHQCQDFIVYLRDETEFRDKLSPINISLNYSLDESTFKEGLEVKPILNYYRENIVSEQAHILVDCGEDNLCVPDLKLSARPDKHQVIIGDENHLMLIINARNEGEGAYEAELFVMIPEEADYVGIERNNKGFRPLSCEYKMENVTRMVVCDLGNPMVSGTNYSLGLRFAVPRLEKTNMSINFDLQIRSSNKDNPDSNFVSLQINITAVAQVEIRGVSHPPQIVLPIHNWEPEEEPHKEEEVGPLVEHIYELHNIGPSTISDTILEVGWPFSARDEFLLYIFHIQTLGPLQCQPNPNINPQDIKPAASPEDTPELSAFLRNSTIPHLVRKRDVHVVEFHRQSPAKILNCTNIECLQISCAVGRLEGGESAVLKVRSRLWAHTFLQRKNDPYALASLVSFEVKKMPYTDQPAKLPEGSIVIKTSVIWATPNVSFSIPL", "T2 sequence (P05556 21-728 limits assumed)": "as the sequence (P05556 21-728 limits assumed) above", "experiment": "biochemical", "conditions": "read-out: inhibition of binding"}},
  "data": [
    {"compound": "CC(C)C[C@H](NC(=O)[C@H](CC(=O)O)NC(=O)CNC(=O)[C@H](CCCNC(=N)N)NC(=O)[C@H](CC(C)C)NC(=O)[C@H](CC(N)=O)NC(=O)[C@@H]1CCCN1C(=O)[C@@H](NC(=O)[C@H](C)NC(=O)[C@@H](N)CC(N)=O)C(C)C)C(=O)N[C@@H](CCC(N)=O)C(=O)N[C@H](C(=O)N[C@@H](CC(C)C)C(=O)N[C@@H](C)C(=O)N[C@@H](CCC(N)=O)C(=O)N[C@@H](CCCCN)C(=O)N[C@H](C(=O)N[C@@H](C)C(=O)N[C@@H](CCCNC(=N)N)C(=O)N[C@H](C(N)=O)[C@@H](C)O)C(C)C)C(C)C", "note": "[A20FMDV2]", "values": [
      {"measurement": "inhibition at 1 µM", "setting": "α5β1", "result": "< 50", "unit": "%"},
      {"measurement": "inhibition at 1 µM", "setting": "α8β1", "result": "< 50", "unit": "%"}
    ]}
  ]
}
